From patent US20140309295A1, “ANTIEPILEPTIC, HYPOCHOLESTEROLEMIC AND NEUROPROTECTIVE COMPOUND” (NEURON BIOPHARMA, S.A., priority 2009, published 2014)

What was measured:
[1] = tested on: human neuroblastoma SK-N-MC cells; experiment: Protection against neuronal death induced by oxidative stress (xanthine/xanthine oxidase), WST-1; assay type: cell-based
Protocol: (§1) The assay was performed on human neuroblastoma SK-N-MC cells in culture from the American Type Culture Collection (ATCC), in all cases strict rules of sterility were followed and the manipulation was performed in class II biological safety cabinets following European standard EN 12469. The cells were maintained in the following culture medium: Minimum Essential Medium Eagle (MEM) supplemented with 1 mM sodium pyruvate, 2 mM L-glutamine, 0.1 mM non-essential amino acids, 0.05 mg/ml gentamicin and 10% fetal bovine serum.
The inhibition caused by compound NST0037 of cell death caused by treatment with xanthine/xanthine oxidase which generates oxidative damage (causes free radicals such as hydrogen peroxide, superoxide anion, hydroxyl radical), which triggers cell death, was analyzed. These cells, not exceeding 15 passages, were seeded on 96-well plates treated for adherent cells with a cell concentration of 5×10^4 cells/well; 3 wells of the plate were seeded for each condition of the assay.
After 24 hours of cell incubation at 37° C. and 5% CO2, the cell treatments were performed with 100 μl of total volume for the following conditions: • Control: culture medium (medium) • Xanthine/xanthine oxidase (XXO): medium plus 10 μM xanthine/60 mU/mL xanthine oxidase, causing the death of 50% of the cells. • XXO plus NST0037: medium plus XXO (10 μM/60 mU/mL) plus NST0037 at 1, 4, 10, 20, 40 or 100 μM.
(§2) The cells were incubated (at 37° C. and 5% CO2) with these treatments for 22 hours, after which time the WST-1 reagent (Roche) was added. The Test WST-1 is based on the measurement of metabolic activity. Cell damage causes the loss of the ability of cells to obtain the energy necessary to maintain their metabolic functions and cell growth, therefore the metabolically active (live) cells reduce tetrazolium salt to formazan by means of the succinate-tetrazolium reductase system (of the mitochondrial respiratory chain). The formazan which is formed can be detected colorimetrically since it has an absorbance of 440 nm. The reading was taken in a plate reader at 440 nm 2 hours after adding the reagent.
The assay was performed on human neuroblastoma SK-N-MC cells in culture from the American Type Culture Collection (ATCC), in all cases strict rules of sterility were followed and the manipulation was performed in class II biological safety cabinets following European standard EN 12469. […]
The effect of mevalonate on the protection caused by compound NST0037 against cell death caused by the treatment with xanthine/xanthine oxidase generating oxidative damage and cell death was analyzed. […]

[2] = tested on: human neuroblastoma SK-N-MC cells; experiment: Protection against neuronal death induced by apoptosis (camptothecin), WST-1; assay type: cell-based; conditions: 20 nM camptothecin
Protocol: as §1
The inhibition caused by compound NST0037 of cell death caused by treatment with camptothecin generating cell cycle arrest was analyzed. Camptothecin is an inhibitor of Topoisomerase I, it therefore prevents DNA duplication and triggers cell cycle arrest and death due to apoptosis. These cells, not exceeding 15 passages, were seeded on 96-well plates treated for adherent cells with a cell concentration of 5×10^4 cells/well; 3 wells of the plate were seeded for each condition of the assay.
After 24 hours of cell incubation at 37° C. and 5% CO2, the cell treatments were performed with 100 μl of total volume for the following conditions: • Control: culture medium (medium) • Camptothecin (CPT): medium plus camptothecin 20 nM, causing death of 50% of the cells. • Camptothecin plus NST0037: medium plus camptothecin (20 nM) plus NST0037 at 1, 4, 10, 20, 40 or 100 μM.
as §2

[3] = tested on: CD1 mice inoculated with MPTP (subchronic); experiment: Subchronic MPTP model of Parkinson's disease in mice; assay type: in vivo
Protocol: All the animals included for the experimental process were 12-week old males of the CD1 strain. The experiments were conducted strictly following the Guidance on the Operation of Animals (Scientific Procedures, Act. 1986). The animals had their respective quarantine period and were treated with maximum precaution to minimize possible contaminations during inoculations and handling.
Twenty animals were used in this assay and the treatments were all conducted by intraperitoneal (i.p.) route with a volume of 100 μl, according to the following regimens: • i) PBS+MPTP+PBS regimen: 10 animals were initially treated with a daily dose for 2 days of PBS, from the second day onwards the animals were inoculated with 1 daily dose of MPTP at 30 mg/Kg for 5 days, at intervals of 2 hours by i.p. route. For the next 21 days they were administered 3 weekly doses of PBS. • ii) NST0037+MPTP+NST0037 regimen: 10 animals were initially treated with a daily dose for 2 days of NST0037 at 50 mg/kg, from the second day onwards the animals were inoculated with 1 daily dose of MPTP at 30 mg/Kg for 5 days, at intervals of 2 hours by i.p. route. For the next 21 days they were administered 3 weekly doses of NST0037 at 50 mg/kg.
Seven days before starting the treatments and at 7, 14 and 21 days post-inoculation of MPTP, the animals were subjected to a locomotor resistance test referred to as the Rotarod test for 2 minutes, recording the time the animals resisted walking over a cylinder which increased its speed from 4 to 40 r.p.m.
Once the treatment time of 21 days ended, the animals were sacrificed and the brains were dissected. The brain samples were processed and included in paraffin. For the analysis of the presence of dopaminergic neurons in the substantia nigra, the immunohistochemistry against the tyrosine-hydroxylase (TH) protein was performed in 5 μm thick sagittal sections.
Once the treatment time of 21 days ended, the animals were sacrificed and the brains were dissected. The brain samples were processed and included in paraffin. […]

CCC(CC)C(=O)O[C@H]1C[C@@H](C)C=C2C=C[C@H](C)[C@H](CC[C@@H]3C[C@@H](O)CC(=O)O3)[C@H]21 [NST0037, (1S,2S,6R,8S,8aR)-1,2,6,7,8,8a-hexahydro-3,7-dimethyl-8-[2-[(2R,4R)-tetrahydro-4-hydroxy-6-oxo-2H-pyran-2-yl]ethyl]-1-naphthalenyl-2-ethyl-butyrate]
maximum protection against death caused by XXO ([1]; 20 μM NST0037, 10 μM xanthine/60 mU/mL xanthine oxidase, 22 h): 78%
protection against death caused by XXO ([1]; 40 μM NST0037 (Example 14)): 57%
protection against death caused by camptothecin ([2]; 4 μM NST0037): 18%
protection against death caused by camptothecin ([2]; 10 μM NST0037): 28%
protection against death caused by camptothecin ([2]; 40 μM NST0037): 27%
protection against death caused by camptothecin ([2]; 100 μM NST0037): 27%
motor resistance (Rotarod test) ([3]; NST0037+MPTP+NST0037, 50 mg/kg i.p., MPTP 30 mg/Kg daily 5 days, up to 21 days): prevents the motor deterioration of the animals
dopaminergic neurons (tyrosine-hydroxylase) in substantia nigra ([3]; NST0037+MPTP+NST0037, 21 days): larger number of TH-positive cells
lipid peroxidation (HNE) in neurons of substantia nigra ([3]; NST0037+MPTP+NST0037, 21 days): modest number of isolated neurons with HNE-positive labeling
